Assay results published in ChEMBL document CHEMBL2311483, “HCV NS5A replication complex inhibitors. Part 3: discovery of potent analogs with distinct core topologies” (Bioorg Med Chem Lett, 2013).
In brackets after ≈: the same amount, converted by molar mass.

How the values were obtained:
[1] = Cytotoxicity against human HuH7 cells after 72 hrs by Alamar blue assay; type: cell-based, Huh-7
Hepatitis C virus = experiment: Antiviral activity against HCV1b harboring NS5B infected in human HuH7 cells assessed as inhibition of viral replication after 72 hrs by FRET assay; type: functional, organism-based, Hepacivirus hominis; settings: genotype 1b, Huh-7, 72 h
[2] = test system: Bovine viral diarrhea virus 1; experiment: Antiviral activity against Bovine viral diarrhea virus infected in human HuH7 cells assessed as inhibition of viral replication by luciferase reporter gene assay; type: functional, organism-based; settings: Bovine viral diarrhea virus isolates and strains, Huh-7
[3] = Solubility of the compound in phosphate buffer at pH 6.5; type: physicochemical

SMILES	CC50 at 72 h [1] [µM]	EC50 (Hepatitis C virus) [nM]	EC50 [2] [µM]	solubility [3] [µg/mL]
O=C(Nc1ccc(/C=C/c2ccc(NC(=O)[C@@H]3CCCN3C(=O)Cc3ccccc3)cc2)cc1)[C@@H]1CCCN1C(=O)Cc1ccccc1	> 10	0.09	> 10	–
O=C(Nc1ccc(-c2ccc(NC(=O)[C@@H]3CCCN3C(=O)Cc3ccccc3)cc2)cc1)[C@@H]1CCCN1C(=O)Cc1ccccc1	–	205	–	–
O=C(Nc1ccc(CN2CCc3cc(NC(=O)[C@@H]4CCCN4C(=O)Cc4ccccc4)ccc3C2)cc1)[C@@H]1CCCN1C(=O)Cc1ccccc1	> 10	159	> 10	–
O=C(Nc1cccc(CN2CCc3ccc(NC(=O)[C@@H]4CCCN4C(=O)Cc4ccccc4)cc3C2)c1)[C@@H]1CCCN1C(=O)Cc1ccccc1	> 10	3890	> 10	–
O=C(Nc1ccc(-c2nnc(-c3ccc(NC(=O)[C@@H]4CCCN4C(=O)Cc4ccccc4)cc3)o2)cc1)[C@@H]1CCCN1C(=O)Cc1ccccc1	> 10	149	> 10	–
O=C(Nc1ccc(-c2cnc(-c3ccc(NC(=O)[C@@H]4CCCN4C(=O)Cc4ccccc4)cc3)o2)cc1)[C@@H]1CCCN1C(=O)Cc1ccccc1	> 10	2.38	> 10	–
O=C(Nc1ccc(-c2coc(-c3ccc(NC(=O)[C@@H]4CCCN4C(=O)Cc4ccccc4)cc3)n2)cc1)[C@@H]1CCCN1C(=O)Cc1ccccc1	> 10	1.32	> 10	–
O=C(Nc1ccc(-c2ccc(-c3ccc(NC(=O)[C@@H]4CCCN4C(=O)Cc4ccccc4)cc3)s2)cc1)[C@@H]1CCCN1C(=O)Cc1ccccc1	> 10	14.7	> 10	–
O=C(Nc1ccc(-c2c[nH]c(-c3ccc(NC(=O)[C@@H]4CCCN4C(=O)Cc4ccccc4)cc3)n2)cc1)[C@@H]1CCCN1C(=O)Cc1ccccc1	> 10	67.2	> 10	–
O=C(Nc1ccc(-c2cc(-c3ccc(NC(=O)[C@@H]4CCCN4C(=O)Cc4ccccc4)cc3)[nH]n2)cc1)[C@@H]1CCCN1C(=O)Cc1ccccc1	> 10	0.71	> 10	–
Cn1nc(-c2ccc(NC(=O)[C@@H]3CCCN3C(=O)Cc3ccccc3)cc2)cc1-c1ccc(NC(=O)[C@@H]2CCCN2C(=O)Cc2ccccc2)cc1	> 10	181	> 10	–
O=C(Nc1ccc(/C=C\c2ccc(NC(=O)[C@@H]3CCCN3C(=O)Cc3ccccc3)cc2)cc1)[C@@H]1CCCN1C(=O)Cc1ccccc1	> 10	12.4	> 10	–
O=C(Nc1ccc([C@H]2C[C@@H]2c2ccc(NC(=O)[C@@H]3CCCN3C(=O)Cc3ccccc3)cc2)cc1)[C@@H]1CCCN1C(=O)Cc1ccccc1	> 10	5.66	> 10	3 (≈ 4.58 µM)
O=C(Nc1ccc([C@H]2C[C@H]2c2ccc(NC(=O)[C@@H]3CCCN3C(=O)Cc3ccccc3)cc2)cc1)[C@@H]1CCCN1C(=O)Cc1ccccc1	> 10	796	> 10	–
O=C(Nc1ccc(NC(=O)[C@@H]2CCCN2C(=O)Cc2ccccc2)cc1)c1ccc(NC(=O)[C@@H]2CCCN2C(=O)Cc2ccccc2)cc1	> 10	11	> 10	–
CN(C(=O)c1ccc(NC(=O)[C@@H]2CCCN2C(=O)Cc2ccccc2)cc1)c1ccc(NC(=O)[C@@H]2CCCN2C(=O)Cc2ccccc2)cc1	> 10	6250	> 10	–
O=C(Nc1ccc(N2CCc3cc(NC(=O)[C@@H]4CCCN4C(=O)Cc4ccccc4)ccc3C2)nc1)[C@@H]1CCCN1C(=O)Cc1ccccc1	> 10	1.74	> 10	–
O=C(Nc1ccc(-c2nc3ccc(NC(=O)[C@@H]4CCCN4C(=O)Cc4ccccc4)cc3[nH]2)cc1)[C@@H]1CCCN1C(=O)Cc1ccccc1	> 10	1050	> 10	–
O=C(Nc1ccc(CCc2ccc(NC(=O)[C@@H]3CCCN3C(=O)Cc3ccccc3)cc2)cc1)[C@@H]1CCCN1C(=O)Cc1ccccc1	> 10	6.01	> 10	–
O=C(Nc1ccc(COc2ccc(NC(=O)[C@@H]3CCCN3C(=O)Cc3ccccc3)cc2)cc1)[C@@H]1CCCN1C(=O)Cc1ccccc1	> 10	97.8	> 10	–
O=C(Nc1ccc(C#Cc2ccc(NC(=O)[C@@H]3CCCN3C(=O)Cc3ccccc3)cc2)cc1)[C@@H]1CCCN1C(=O)Cc1ccccc1	> 10	6.24	> 10	–
O=C(Nc1ccc(-c2nc[nH]c2-c2ccc(NC(=O)[C@@H]3CCCN3C(=O)Cc3ccccc3)cc2)cc1)[C@@H]1CCCN1C(=O)Cc1ccccc1	> 10	20.9	> 10	–
O=C(Nc1ccc(-c2nn[nH]c2-c2ccc(NC(=O)[C@@H]3CCCN3C(=O)Cc3ccccc3)cc2)cc1)[C@@H]1CCCN1C(=O)Cc1ccccc1	> 10	8.18	> 10	–
O=C(Nc1ccc(-c2c[nH]nc2-c2ccc(NC(=O)[C@@H]3CCCN3C(=O)Cc3ccccc3)cc2)cc1)[C@@H]1CCCN1C(=O)Cc1ccccc1	> 10	4.57	> 10	–
O=C(Nc1ccc(Cc2ccc(NC(=O)[C@@H]3CCCN3C(=O)Cc3ccccc3)cc2)cc1)[C@@H]1CCCN1C(=O)Cc1ccccc1	> 10	1700	> 10	–
O=C(Nc1ccc(Oc2ccc(NC(=O)[C@@H]3CCCN3C(=O)Cc3ccccc3)cc2)cc1)[C@@H]1CCCN1C(=O)Cc1ccccc1	> 10	1990	> 10	–
O=C(c1ccc(NC(=O)[C@@H]2CCCN2C(=O)Cc2ccccc2)cc1)c1ccc(NC(=O)[C@@H]2CCCN2C(=O)Cc2ccccc2)cc1	> 10	3950	> 10	–
CC(C)(c1ccc(NC(=O)[C@@H]2CCCN2C(=O)Cc2ccccc2)cc1)c1ccc(NC(=O)[C@@H]2CCCN2C(=O)Cc2ccccc2)cc1	> 10	638	> 10	–
O=C(Nc1ccc(CCCc2ccc(NC(=O)[C@@H]3CCCN3C(=O)Cc3ccccc3)cc2)cc1)[C@@H]1CCCN1C(=O)Cc1ccccc1	> 10	36.1	> 10	–
CN1Cc2cc(NC(=O)[C@@H]3CCCN3C(=O)Cc3ccccc3)ccc2CC1c1ccc(NC(=O)[C@@H]2CCCN2C(=O)Cc2ccccc2)cc1 (mixture of isomers)	> 10	13.9	> 10	135
